The values below come from article PMC11233931, “Remodeling tumor‐associated macrophage for anti‐cancer effects by rational design of irreversible inhibition of mitogen‐activated protein kinase‐activated protein kinase 2” (MedComm, 2024).

Data set [1] in a line: Cell viability assay (CCK-8), MIA Paca-2. Type of data set: cell-based. The conditions noted are these: MIA Paca-2 cells (pancreatic carcinoma), MIA Paca-2, human pancreatic carcinoma, read-out: IC50 (μM) mean ± SD, cytotoxicity. Here is the method:
(§1) In cellular experiments, cells are seeded into either 6-well or 96-well plates and incubated overnight, proceeding with treatments as described in the figure legends or methods section. The cell inoculation numbers are outlined as follows: For assays measuring cell viability, between 3,000 to 5,000 cells are seeded per well in 96-well plates. For other cellular assays, the seeding density ranges from 5×10^5 to 1×10^6 cells per well in 6-well plates.
(§2) Cells was plated into 96-well plates and incubated overnight prior to introduction of varying concentrations of compounds or control solvent. Following a 72-hour exposure period, cell viability was determined using a Cell Counting Kit-8 assay (Life-iLab, China). Dose-response curves were fitted using a four-parameter method facilitated by SoftMax Pro, which was subsequently used for the computation of IC50 values.

The next data set addresses T1, FGFR4 (Homo sapiens, UniProt P22455).
T1 construct: purchased Eurofins (Celle Lévescault)
The data set can be described thus: Eurofins kinase selectivity profile, FGFR4. The format is biochemical. On the procedure: Subsequently, to ascertain whether the high potency of compound 11 was specific for MK2, an additional 380 human recombinant protein kinases were screened.
To assess the impact of various compounds on MK2 kinase activity, we utilized the ADP‐Glo Assay Kit (Promega) following the manufacturer's instructions. Luminescence measurements were taken using a SpectraMax Paradigm reader. The inhibition percentage was calculated using the following formula: ((specific signalDMSO control − specific signal inhibitor)/(specific signalDMSO control)) × 100%. The IC50 values were determined employing dose–response curve fitting via Prism (Graph Pad). Additionally, Eurofins company (Celle Lévescault) conducted the analysis on compound 11’s inhibitory activity against 380 other human recombinant kinases at various concentrations.

Data set [2] can be described thus: Cell viability assay (CCK-8), THP-1. Type of data set: cell-based. The conditions noted are these: THP-1 cells (monocyte), THP-1, human monocyte, read-out: IC50 (μM) mean ± SD, cytotoxicity. On the procedure: as §1, §2
Data set [3] has as its system CD206 and Arg-1 expression in BMDM. The data set is described as follows: Flow cytometry of CD206 and Arg-1 in IL-4/IL-13 stimulated BMDM. Type of data set: cell-based, mouse. The conditions noted are these: IL-4/IL-13, 48 h. The source says: A previous study has reported that MK2 fostered M2‐like polarization of TAMs, driving a protumor and proangiogenic phenotype which in turn accelerates tumor progression.[21] We thus assessed the influence of compound 11 on macrophage polarization and function. Our experiments used human THP‐1 monocyte induced macrophages, mouse RAW264.7 macrophages, and mouse bone marrow‐derived macrophages (BMDM). These cells were induced into M2‐like macrophages using the classic IL‐4 and IL‐13 stimuli.
FIGURE 5 Inhibition of pro‐tumorigenic M2‐like polarization in macrophages by compound 11. (A–C) RT‐PCR analysis highlights the impact of compound 11 on MRC1 and ARG‐1 mRNA expression in various macrophage cells treated with IL‐4/IL‐13 alone or combined with compound 11 for 12 h or 24 h. (D) CD206 and Arg‐1 expression in bone marrow‐derived macrophages (BMDM) cells via flow cytometry post 48 h treatment of compound 11 and IL‐4/IL‐13. (E) The treatment effects of compound 11 in THP‐1 cells using western blot analysis. Cells were pretreated with compound 11 for 1 h and followed by IL‐4/IL‐13 treatment (30 min). (F) The influence of MK2 siRNA on MRC1 and ARG‐1 mRNA expression in THP‐1 cells by RT‐PCR analysis post‐IL‐4/IL‐13 stimulation (12 h). […] Data are shown as the mean ± SD. ^* p < 0.05; ^*** p < 0.001 versus the vehicle group, determined by unpaired t test. […]
In general terms: In flow cytometry, cells or beads pass a laser one at a time.

For data set [4], the system named is VEGF mRNA in bone marrow-derived macrophages (BMDMs). The data set can be described thus: RT-PCR of VEGF in IL-4/IL-13 stimulated BMDMs. Type of data set: cell-based, mouse. The conditions noted are these: IL-4/IL-13, 12 h. The text has this: Following this line of investigation, we employed siRNA for the transient knockdown of MK2 in THP‐1 monocyte‐ differentiated macrophages. […] M2 macrophages play a pivotal role in promoting tumor angiogenesis through the secretion of critical factors like VEGF, which facilitate tumor neovascularization.[17] […] These findings further validate the significance of MK2 in the M2 polarization of macrophages and illustrate how compound 11, by targeting MK2, suppresses the pro‐tumorigenic phenotype of macrophages.
Total RNA was extracted from cultured cells using the EZ‐press RNA Purification Kit (EZBioscience). Complementary DNA was synthesized using the ABScript III RT Master Mix for qPCR with gDNA remover (ABclonal Technology) and was quantified with primers listed in Table S5. The relative mRNA expression levels were quantified through qPCR using the SYBR green gene expression assay (ABclonal Technology).
Figure S3 Inhibition of pro-tumorigenic M2-like polarization in macrophages by compound 11. (A) Illustrates the treatment effects on various macrophage cells using Western blot analysis post IL-4/IL-13 exposure (30 minutes or the specified time period). (B) Examines CD206 expression in RAW264.7 cells via flow cytometry post 48hours treatment of compound 11 and IL-4/IL-13. […] IL-4/IL-13 (20 ng/mL) served as the stimulation control, while untreated cells were the baseline control. […]

T1 sequence (P22455 22-802): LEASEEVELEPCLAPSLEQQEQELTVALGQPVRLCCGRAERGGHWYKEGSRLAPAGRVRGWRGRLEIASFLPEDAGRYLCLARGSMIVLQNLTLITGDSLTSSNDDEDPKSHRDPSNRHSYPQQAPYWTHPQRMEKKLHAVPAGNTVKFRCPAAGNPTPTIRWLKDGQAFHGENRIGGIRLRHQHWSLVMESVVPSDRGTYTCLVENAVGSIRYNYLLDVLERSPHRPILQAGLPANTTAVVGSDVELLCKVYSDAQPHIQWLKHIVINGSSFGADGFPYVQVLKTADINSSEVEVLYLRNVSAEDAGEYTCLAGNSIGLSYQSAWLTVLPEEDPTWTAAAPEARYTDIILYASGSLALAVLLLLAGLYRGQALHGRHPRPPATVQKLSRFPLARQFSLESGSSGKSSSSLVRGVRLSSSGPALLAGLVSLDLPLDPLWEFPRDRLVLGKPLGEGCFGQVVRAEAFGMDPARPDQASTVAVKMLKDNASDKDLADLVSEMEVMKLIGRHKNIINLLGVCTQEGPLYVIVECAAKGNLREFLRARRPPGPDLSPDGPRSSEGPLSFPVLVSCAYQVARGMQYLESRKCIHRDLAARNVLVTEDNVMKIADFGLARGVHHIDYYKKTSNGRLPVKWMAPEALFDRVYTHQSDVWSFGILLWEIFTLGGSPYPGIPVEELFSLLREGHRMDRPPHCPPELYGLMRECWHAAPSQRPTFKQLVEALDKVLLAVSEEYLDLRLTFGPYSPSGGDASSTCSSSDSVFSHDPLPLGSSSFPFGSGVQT

Usually IC50 stands for the concentration that gives 50% inhibition. The inhibition is the change of the read-out against control, counted positive when it falls. In the case of `C=CC(=O)Nc1cc(-c2cc(-c3cc4c([nH]3)CCNC4=O)ccn2)ccc1OC(F)(F)F` [compound 11], the IC50 at 72 h was determined as 47.8 ± 2.8 µM in data set [1] and 34.7 ± 0.4 µM in data set [2]. On FGFR4, this compound yielded a half-maximal inhibitory concentration (IC50) of over 1000 nM. The inhibition at 0.01 µM at FGFR4 (FGFR4(h), 10 nM, read-out: Inhibition rate) is 0%. On FGFR4 (FGFR4(h), 100 nM, read-out: Inhibition rate), the inhibition at 0.1 µM was -5%. Besides, the inhibition at 1 µM on FGFR4 (FGFR4(h), 1000 nM, read-out: Inhibition rate) is -1%. In addition, the “effect on expression levels of surface CD206 and Arg-1” value in data set [3] is reported as “suppress”. Moreover, in data set [4], the “effect on relative mRNA level of VEGF” value is listed as “inhibited”.
